Source: patent US20050197292A1, “Compositions and methods for treating T-cell mediated pathological conditions” (priority 2004, published 2005)

Assays:
CD8 T cells = experiment: TCR-CD28 co-stimulated proliferation, [3H] thymidine incorporation, CD8 T cells; format: cell-based, human; conditions: anti-CD3 150 ng/ml and anti-CD28 1 μg/ml coated, 72 h
Protocol: (§1) 96-well plates were coated with the anti-CD3 and anti-CD28 mAb at 150 ng/ml and 1 μg/ml respectively in PBS overnight at 4° C., aspirated and coated with the control protein, CG57008-15, CG57008-12 or CG57008-14 for 4 hr at 37° C. Wells were aspirated and 150 μl of purified Human CD4+, CD8+ or polarized TH2 cells from healthy blood donors, or purified CD4+ or CD8+ T cells from B6 mice at a concentration of 0.7×10^6 cells/ml were added and cultured for 72 h at 37° C. Proliferation was measured by [^3H] thymidine incorporation by pulsing cells with 0.5 μCi of [^3H] thymidine 8 hr prior to harvesting. Cytokines were measured by ELISA using cells harvested at 72 hr.

CD4 T cells = experiment: TCR-CD28 co-stimulated proliferation, [3H] thymidine incorporation, CD4 T cells; format: cell-based, human; conditions: anti-CD3 150 ng/ml and anti-CD28 1 μg/ml coated, 72 h
Protocol: as §1

For “CG201877-02 (ECD/FC): Tim1 - Mus musculus; Mature Igkappa, ECD, Fc, V5, His”, the “proliferation of CD8 T cells” value (CD8 T cells) was “significantly inhibited” and the “proliferation of CD4 T cells” value (CD4 T cells) was “significantly inhibited”.
